Here are results for 27 molecules from patent US7435837B2, “Dihydrobenzofuranyl alkanamine derivatives and methods for using same” (Wyeth, priority 2003, dated 2008).

For assay [1], the target named is T1, human 5-hydroxytryptamine-2C (h5-HT2C) receptor (Homo sapiens, UniProt P28335).
T1 construct: expressed in transfected cells; host or cells: CHO (Chinese Hamster Ovary) cells; membranes
T1 sequence (P28335 33-458): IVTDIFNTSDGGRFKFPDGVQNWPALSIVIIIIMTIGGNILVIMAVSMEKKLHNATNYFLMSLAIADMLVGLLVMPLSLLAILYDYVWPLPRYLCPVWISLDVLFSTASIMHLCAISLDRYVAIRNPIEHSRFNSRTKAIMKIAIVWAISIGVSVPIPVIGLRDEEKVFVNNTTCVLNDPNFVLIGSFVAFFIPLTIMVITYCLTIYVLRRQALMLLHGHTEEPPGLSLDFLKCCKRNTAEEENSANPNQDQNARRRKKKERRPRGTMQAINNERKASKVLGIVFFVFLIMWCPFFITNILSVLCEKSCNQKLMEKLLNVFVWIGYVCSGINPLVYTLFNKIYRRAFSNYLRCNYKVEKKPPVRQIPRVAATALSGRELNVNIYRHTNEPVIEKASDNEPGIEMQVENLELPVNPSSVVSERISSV
In words: [125I]DOI binding to membranes of CHO cells expressing the human 5-HT2C receptor. To be noted: [125I]DOI radioligand, CHO cell membranes, room temperature 60 min; read-out: 5-HT2C Affinity Ki.

Another assay addresses T2, human 5-HT2C receptor (Homo sapiens, UniProt P28335).
T2 sequence (P28335 33-458): T1 sequence (P28335 33-458)
In words: 5-HT2C receptor-stimulated calcium mobilization (FLIPR) in CHO cells.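 For all read-outs here: Fluo-3-AM fluorescence read on FLIPR every 1 s, agonist added after 10 baseline reads, response taken as peak minus lowest raw fluorescence count.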 Format: cell-based. To be noted: for Emax: CHO; for pEC50: calcium mobilization, CHO cells stably expressing human 5-HT2C, read-out: 5-HT2C Function EC50. (Calcium assays in cells follow changes in intracellular calcium, usually with a dye or a luminescent sensor.)

[2] abbreviates: percentage of the response observed with a maximally effective concentration of 5-HT, read-out: 5-HT2C Function Emax (%).

Each structure is given as a SMILES string. pEC50, pKi: −log10 of the molar value. Where two headings read alike, the source gives them in different places.

The term pKi denotes the negative decadic logarithm of the Ki, by convention in mol/L. One may read the pEC50 as the EC50 on a negative log10 scale, so that one unit is a factor of ten.

As to `CNCC1Cc2cc(F)cc(-c3cc(C)ccc3C)c2O1` (racemic) [Example 452, (±)-{[7-(2,5-dimethylphenyl)-5-fluoro-2,3-dihydro-1-benzofuran-2-yl]methyl}methylamine], in assay [1], the pKi is 7.62. For the same molecule, the Emax on human 5-HT2C receptor (setting [2]) worked out at 80%. Further, the pEC50 on human 5-HT2C receptor was 6.82.

`CNCC1Cc2cc(F)cc(-c3c(Cl)cccc3Cl)c2O1` (racemic) [Example 454, (±)-{[7-(2,6-dichlorophenyl)-5-fluoro-2,3-dihydro-1-benzofuran-2-yl]methyl}methylamine]: in assay [1], the pKi was 9.59. Further, the Emax on human 5-HT2C receptor (read-out: 5-HT2C Function Emax (%), percentage of the response observed with a maximally effective concentration of 5-HT) came out at 90%. Besides, the negative logarithm of the EC50 (pEC50) on human 5-HT2C receptor was 9.41.

Consider `CNCC1Cc2cc(F)cc(-c3cc(OC)ccc3C)c2O1` (racemic) [Example 456, (±)-{[5-fluoro-7-(5-methoxy-2-methylphenyl)-2,3-dihydro-1-benzofuran-2-yl]methyl}methylamine], for which, in assay [1], the negative-log Ki (pKi) is 8.39. Further, the Emax on human 5-HT2C receptor (setting [2]) was 100%. Further, the pEC50 on human 5-HT2C receptor is 7.30.

For the molecule `CNCC1Cc2cc(F)cc(-c3cc(C)ccc3OC)c2O1` (racemic) [Example 457, (±)-{[5-fluoro-7-(2-methoxy-5-methylphenyl)-2,3-dihydro-1-benzofuran-2-yl]methyl}methylamine], the negative logarithm of the Ki (pKi) in assay [1] is 7.42. The Emax at human 5-HT2C receptor (setting [2]) is 50%. Also, the pEC50 on human 5-HT2C receptor is 6.13.

For `CNCC1Cc2cc(F)cc(-c3cc(Cl)ccc3OC)c2O1` (racemic) [Example 458, (±)-{[7-(5-chloro-2-methoxyphenyl)-5-fluoro-2,3-dihydro-1-benzofuran-2-yl]methyl}methylamine], the pKi in assay [1] is 7.77. Besides, the Emax on human 5-HT2C receptor (setting [2]) was determined as 80%. The negative logarithm of the EC50 (pEC50) on human 5-HT2C receptor was 6.67.

As to `CNCC1Cc2cc(F)cc(-c3cccnc3)c2O1` (racemic) [Example 459, (±)-[(5-fluoro-7-pyridin-3-yl-2,3-dihydro-1-benzofuran-2-yl)methyl]methylamine], the pKi in assay [1] is 7.62. At human 5-HT2C receptor (setting [2]), the Emax was determined as 90%. Also, the pEC50 at human 5-HT2C receptor is 7.80.

For `CNCC1Cc2cc(Cl)cc(-c3cccc(F)c3F)c2O1` (racemic) [Example 463, (±)-{[5-chloro-7-(2,3-difluorophenyl)-2,3-dihydro-1-benzofuran-2-yl]methyl}methylamine], the pKi in assay [1] was 7.68. For the same molecule, the Emax on human 5-HT2C receptor (setting [2]) was determined as 80%. Moreover, the negative logarithm of the EC50 (pEC50) at human 5-HT2C receptor was 7.05.

Take `CNCC1Cc2cc(C)cc(-c3ccccc3F)c2O1` (racemic) [Example 475, (±)-{[7-(2-fluorophenyl)-5-methyl-2,3-dihydro-1-benzofuran-2-yl]methyl}methylamine]: the pKi in assay [1] was 8.49. The Emax on human 5-HT2C receptor (setting [2]) was 80%. For the same molecule, the negative logarithm of the EC50 (pEC50) on human 5-HT2C receptor was 7.60.

Regarding `CNCC1Cc2cc(C)cc(-c3ccccc3Cl)c2O1` (racemic) [Example 476, (±)-{[7-(2-chlorophenyl)-5-methyl-2,3-dihydro-1-benzofuran-2-yl]methyl}methylamine], the pKi in assay [1] was 9.70. The Emax at human 5-HT2C receptor (setting [2]) worked out at 100%. Further, the negative logarithm of the EC50 (pEC50) on human 5-HT2C receptor was 8.30.

For the molecule `CNCC1Cc2cc(C)cc(-c3ccccc3OC)c2O1` (racemic) [Example 477, (±)-{[7-(2-methoxyphenyl)-5-methyl-2,3-dihydro-1-benzofuran-2-yl]methyl}methylamine], in assay [1], the pKi was 8.17. Further, the Emax at human 5-HT2C receptor (setting [2]) was found to be 80%. The pEC50 at human 5-HT2C receptor was 8.05.

Turning to `CNCC1Cc2cc(C)cc(-c3cccc(C)c3)c2O1` (racemic) [Example 478, (±)-{[7-(3-methylphenyl)-5-methyl-2,3-dihydro-1-benzofuran-2-yl]methyl}methylamine], the pKi in assay [1] is 7.96. Further, the Emax at human 5-HT2C receptor (setting [2]) was determined as 70%. In addition, the negative logarithm of the EC50 (pEC50) on human 5-HT2C receptor is 6.65.

On to `CNCC1Cc2cc(C)cc(-c3cccc(Cl)c3)c2O1` (racemic) [Example 479, (±)-{[7-(3-chlorophenyl)-5-methyl-2,3-dihydro-1-benzofuran-2-yl]methyl}methylamine], for which the pKi in assay [1] was 9.30. In addition, the Emax on human 5-HT2C receptor (setting [2]) was 80%. Also, the negative logarithm of the EC50 (pEC50) on human 5-HT2C receptor was 7.15.

Consider `CNCC1Cc2cc(C)cc(-c3ccc(C)cc3)c2O1` (racemic) [Example 480, (±)-{[7-(4-methylphenyl)-5-methyl-2,3-dihydro-1-benzofuran-2-yl]methyl}methylamine], for which the pKi in assay [1] is 8.36. On human 5-HT2C receptor (setting [2]), the Emax amounted to 70%. Also, at human 5-HT2C receptor, the pEC50 is 6.60.

`CNCC1Cc2cc(C)cc(-c3ccc(Cl)cc3)c2O1` (racemic) [Example 481, (±)-{[7-(4-chlorophenyl)-5-methyl-2,3-dihydro-1-benzofuran-2-yl]methyl}methylamine]: the pKi in assay [1] is 8.82. Also, at human 5-HT2C receptor (setting [2]), the Emax is 80%. In addition, the pEC50 at human 5-HT2C receptor is 7.12.

Regarding `CNCC1Cc2cc(C)cc(-c3ccc(F)cc3)c2O1` (racemic) [Example 482, (±)-{[7-(4-fluorophenyl)-5-methyl-2,3-dihydro-1-benzofuran-2-yl]methyl}methylamine], in assay [1], the pKi is 8.15. Further, the Emax at human 5-HT2C receptor (setting [2]) stood at 80%. Moreover, the pEC50 at human 5-HT2C receptor is 6.84.

For the molecule `CNCC1Cc2cc(C)cc(-c3ccc(OC)cc3)c2O1` (racemic) [Example 483, (±)-{[7-(4-methoxyphenyl)-5-methyl-2,3-dihydro-1-benzofuran-2-yl]methyl}methylamine], the pKi in assay [1] is 8.30. For the same molecule, the Emax at human 5-HT2C receptor (setting [2]) came to 80%. Also, the negative logarithm of the EC50 (pEC50) on human 5-HT2C receptor was 7.24.

In the case of `CNCC1Cc2cc(C)cc(-c3cccc(OC)c3OC)c2O1` (racemic) [Example 484, (±)-{[7-(2,3-dimethoxyphenyl)-5-methyl-2,3-dihydro-1-benzofuran-2-yl]methyl}methylamine], in assay [1], the pKi is 9.29. Moreover, the Emax at human 5-HT2C receptor (setting [2]) is 70%. For the same molecule, the pEC50 on human 5-HT2C receptor was 7.37.

In the case of `CNCC1Cc2cc(C)cc(-c3ccc(Cl)cc3Cl)c2O1` (racemic) [Example 485, (±)-{[7-(2,4-dichlorophenyl)-5-methyl-2,3-dihydro-1-benzofuran-2-yl]methyl}methylamine], in assay [1], the pKi was 8.52. In addition, the Emax at human 5-HT2C receptor (setting [2]) was 90%. The pEC50 at human 5-HT2C receptor is 7.49.

Turning to `CNCC1Cc2cc(C)cc(-c3cc(Cl)ccc3Cl)c2O1` (racemic) [Example 486, (±)-{[7-(2,5-dichlorophenyl)-5-methyl-2,3-dihydro-1-benzofuran-2-yl]methyl}methylamine], the pKi in assay [1] is 9.70. The Emax at human 5-HT2C receptor (setting [2]) was 90%. Moreover, the pEC50 at human 5-HT2C receptor was 8.30.

For the molecule `CNCC1Cc2cc(C)cc(-c3c(C)cccc3C)c2O1` (racemic) [Example 489, (±)-{[7-(2,6-dimethylphenyl)-5-methyl-2,3-dihydro-1-benzofuran-2-yl]methyl}methylamine], the pKi in assay [1] was 8.52. Further, the Emax on human 5-HT2C receptor (setting [2]) was 90%. In addition, the negative-log EC50 (pEC50) at human 5-HT2C receptor was 7.41.

As to `CNCC1Cc2cc(C)cc(-c3c(Cl)cccc3Cl)c2O1` (racemic) [Example 490, (±)-{[7-(2,6-dichlorophenyl)-5-methyl-2,3-dihydro-1-benzofuran-2-yl]methyl}methylamine], in assay [1], the pKi is 9.00. In addition, the Emax on human 5-HT2C receptor (setting [2]) is 100%. In addition, the negative logarithm of the EC50 (pEC50) at human 5-HT2C receptor is 8.22.

As for `CNCC1Cc2cc(OC)cc(-c3ccccc3F)c2O1` (racemic) [Example 491, (±)-{[7-(2-fluorophenyl)-5-methoxy-2,3-dihydro-1-benzofuran-2-yl]methyl}methylamine], in assay [1], the negative logarithm of the Ki (pKi) was 7.66. The Emax at human 5-HT2C receptor (setting [2]) amounted to 80%. Moreover, the negative-log EC50 (pEC50) at human 5-HT2C receptor is 6.70.

On to `CNCC1Cc2cc(OC)cc(-c3ccccc3Cl)c2O1` (racemic) [Example 492, (±)-{[7-(2-chlorophenyl)-5-methoxy-2,3-dihydro-1-benzofuran-2-yl]methyl}methylamine], for which the negative logarithm of the Ki (pKi) in assay [1] was 8.51. The Emax at human 5-HT2C receptor (setting [2]) worked out at 80%. Besides, the pEC50 on human 5-HT2C receptor was 8.15.

Turning to `CNCC1Cc2cc(OC)cc(-c3ccccc3C)c2O1` (racemic) [Example 493, (±)-{[7-(2-methylphenyl)-5-methoxy-2,3-dihydro-1-benzofuran-2-yl]methyl}methylamine], in assay [1], the pKi is 7.96. For the same molecule, on human 5-HT2C receptor (setting [2]), the Emax amounted to 90%. For the same molecule, the negative-log EC50 (pEC50) at human 5-HT2C receptor is 8.10.

With `CNCC1Cc2cc(OC)cc(-c3cccc(F)c3F)c2O1` (racemic) [Example 494, (±)-{[7-(2,3-difluorophenyl)-5-methoxy-2,3-dihydro-1-benzofuran-2-yl]methyl}methylamine], in assay [1], the negative-log Ki (pKi) is 7.46. The Emax at human 5-HT2C receptor (setting [2]) was 60%. Further, the pEC50 on human 5-HT2C receptor was 6.32.

Regarding `CNCC1Cc2cc(OC)cc(-c3cccc(Cl)c3Cl)c2O1` (racemic) [Example 495, (±)-{[7-(2,3-dichlorophenyl)-5-methoxy-2,3-dihydro-1-benzofuran-2-yl]methyl}methylamine], the pKi in assay [1] was 7.39. Moreover, the Emax on human 5-HT2C receptor (setting [2]) came out at 60%. For the same molecule, the pEC50 at human 5-HT2C receptor was 6.47.

For the molecule `CNCC1Cc2cc(OC)cc(-c3cccc(C)c3C)c2O1` (racemic) [Example 496, (±)-{[7-(2,3-dimethylphenyl)-5-methoxy-2,3-dihydro-1-benzofuran-2-yl]methyl}methylamine], the pKi in assay [1] was 7.34. Besides, the Emax at human 5-HT2C receptor (setting [2]) came out at 60%. On human 5-HT2C receptor, the pEC50 is 6.29.
